Publication PMC8975999, “Inhibition of RIPK1 by ZJU-37 promotes oligodendrocyte progenitor proliferation and remyelination via NF-κB pathway” (Cell Death Discovery, 2022)

Target: T1, RIPK1 (receptor interacting serine/threonine protein kinase 1) (Homo sapiens, UniProt Q13546)
T1 construct: Flag-RIPK1 immunoprecipitated from HEK293T cells
T1 sequence (Q13546 1-671): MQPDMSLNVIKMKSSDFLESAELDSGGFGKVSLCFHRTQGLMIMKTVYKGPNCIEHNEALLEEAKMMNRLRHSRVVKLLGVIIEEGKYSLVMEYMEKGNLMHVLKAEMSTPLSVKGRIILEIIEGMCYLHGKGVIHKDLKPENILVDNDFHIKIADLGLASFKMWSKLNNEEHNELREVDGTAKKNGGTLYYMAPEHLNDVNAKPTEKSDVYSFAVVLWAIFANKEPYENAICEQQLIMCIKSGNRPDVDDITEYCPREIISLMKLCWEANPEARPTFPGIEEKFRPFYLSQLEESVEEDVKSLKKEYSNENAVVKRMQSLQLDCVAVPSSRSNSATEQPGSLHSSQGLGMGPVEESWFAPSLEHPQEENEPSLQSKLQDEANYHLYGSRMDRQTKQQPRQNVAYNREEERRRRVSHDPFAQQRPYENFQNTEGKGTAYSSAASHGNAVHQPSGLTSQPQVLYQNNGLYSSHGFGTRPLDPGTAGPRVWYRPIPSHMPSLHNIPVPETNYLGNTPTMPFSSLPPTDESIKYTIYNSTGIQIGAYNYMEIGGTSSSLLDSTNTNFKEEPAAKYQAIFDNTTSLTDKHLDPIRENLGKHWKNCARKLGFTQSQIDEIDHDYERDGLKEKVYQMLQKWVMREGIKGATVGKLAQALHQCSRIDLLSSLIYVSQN
Assay: in vitro kinase assay on immunoprecipitated Flag-RIPK1 (Kinase-Glo; p-S166 western blot)
Type: biochemical

Molecule `CN1C(=O)[C@@H](Cc2c[nH]c3c(Cl)c(F)ccc23)N(C=O)C1=O` [ZJU-37] has an IC50 of 0.366 µM.
